From US20220330594A1 (WisTa Laboratories Ltd., priority 2019, published 2022)
Structures can show the parent of a compound that is named as a salt.

How the values were obtained:
[1] = test system: ACh levels in the hippocampus; test: Hippocampal ACh microdialysis with rivastigmine and scopolamine in the perfusion fluid; format: in vivo, wild type mice
Text: Under the condition of cholinesterase inhibition used in these experiments (a very small amount of a cholinesterase inhibitor, 100 nanomolar rivastigmine, added to the perfusion fluid), ACh levels in the hippocampus rise, and when they rise strongly enough, they limit additional ACh release by activating pre-synaptic muscarinic receptors of the M2/M4 subtype (so-called negative feedback receptors).
In this situation, adding scopolamine ([…]) to the perfusion fluid blocks these presynaptic receptors and, as a consequence, ACh levels rise by 3-5 fold. The fact that LMTM is not additive with rivastigmine in these experiments supports the conclusion that LMTM has a different mechanism of action from rivastigmine. In other words, although LMTM has been described as being a weak inhibitor of cholinesterases in high concentrations, the present effects seem to be unrelated to cholinesterase inhibition, because there is no additive effect with small quantities of rivastigmine.

[2] = test system: acetylcholine (ACh) levels in hippocampus; test: Hippocampal acetylcholine levels by implanted microdialysis probe and HPLC; format: in vivo; conditions: wild-type mice
Protocol: […] Rivastigmine was administered subcutaneously with an Alzet minipump whereas LMTM was administered by oral gavage. Levels of ACh were measured in hippocampus using an implanted microdialysis probe and HPLC analysis of the extracellular fluid.
Data are presented as group averages and standard errors of mean and were analysed using parametric statistics, with alpha set to 0.05.

synaptophysin = test: Quantitative immunohistochemistry of synaptophysin in brain sections; format: in vivo; conditions: wild-type mice
Protocol: (§1) Wild-type and L1 mice (n=7-16 for each group) were pre-treated with rivastigmine (0.1 or 0.5 mg/kg/day) or memantine (2 or 20 mg/kg/day) or vehicle for 5 weeks by gavage. For the following 6 weeks, LMTM (5 and 15 mg/kg) or vehicle were added to this daily treatment regime, also by gavage. Animals were tested behaviourly during weeks 10 and 11 using a problem solving task in the open field water maze and then sacrificed for immunohistochemical and other tissue analyses.

Mitochondrial complex IV = test: Direct measurement of mitochondrial complex IV activity after treatment; format: in vivo; conditions: wild type mice
Protocol: as §1, with “The treatment schedule used to study the negative interaction between symptomatic treatments and LMTM was designed to model the clinical situation in which subjects are first treated chronically with a cholinesterase inhibitor or memantine before receiving LMTM. In what follows, we summarise some of the key results obtained for the AChEI, rivastigmine. Wild-type” for “Wild-type”

wild-type mice = test: Behaviour: problem solving task in the open field water maze; format: in vivo
Protocol: as §1, with “The treatment schedule used to study the negative interaction between symptomatic treatments and LMTM was designed to model the clinical situation in which subjects are first treated chronically with a cholinesterase inhibitor or memantine before receiving LMTM. In what follows, we summarise some of the key results obtained for the AChEI, rivastigmine. Wild-type” for “Wild-type”

tau transgenic L1 mice = test: Treatment effects of LMTM and rivastigmine in tau transgenic L1 mice; format: in vivo; conditions: results not shown
Text: In the L1 mouse model which was used in some of the present studies, there is over-expression of a three-repeat tau fragment encompassing residues 296-390 of the 2N4R tau isoform under the control of the Thy 1 promotor in an NMRI mouse strain (WO2002/059150). This fragment corresponds to the segment of tau first identified within the proteolytically stable core of the PHF (Wischik et al., 1988a; Wischik et al., 1988b) and recently confirmed by cryo-electronmicroscopy of PHFs in AD and tau filaments in Pick's disease (Fitzpatrick et al., 2017; Falcon et al., 2018).
The treatment schedule used to study the negative interaction between symptomatic treatments and LMTM was designed to model the clinical situation in which subjects are first treated chronically with a cholinesterase inhibitor or memantine before receiving LMTM. In what follows, we summarise some of the key results obtained for the AChEI, rivastigmine. […]
For measurement of acetylcholine (ACh) levels in hippocampus, animals (wild-type or L1) were treated with LMTM (5 mg/kg/day for 2 weeks) after prior treatment for 2 weeks with or without rivastigmine (0.5 mg/kg/day). […] Levels of ACh were measured in hippocampus using an implanted microdialysis probe and HPLC analysis of the extracellular fluid.

[3] = LMTM alone 5 or 15 mg/kg/day, approximate rounded percentage

Structure (SMILES)	rise in ACh levels in the hippocampus ([1]; scopolamine (μM) added to perfusion fluid containing 100 nanomolar rivastigmine)	increase in basal ACh levels in hippocampus ([2]; LMTM 5 mg/kg/day for 2 weeks, oral gavage, significant (FIG. 1A)) [fold]	ACh release, ↑ (increase) [2, 3]	Synaptophysin, ↑ (increase) (synaptophysin; [3])	increase in mean synaptophysin levels (synaptophysin; mean of hippocampus, visual cortex, diagonal band and septum, LMTM alone (FIG. 1B)) [fold]	complex IV activity following LMTM treatment (Mitochondrial complex IV)	spatial recognition memory (wild-type mice)	effect on ACh levels in scopolamine experiments ([1]; wild type mice, 100 nanomolar rivastigmine in the perfusion fluid, scopolamine blocking M2/M4 receptors)	treatment effects in L1 mice compared with wild-type mice (tau transgenic L1 mice)
CN1[C@@H]2C[C@@H](OC(=O)[C@H](CO)c3ccccc3)C[C@H]1[C@@H]1O[C@@H]12 [scopolamine, reference compound]	3-5 fold								
CN(C)c1ccc2c(c1)Sc1cc(N(C)C)ccc1N2 [LMTM, hydromethylthionine mesylate]		2	↑ × 200%	↑ × 300%	3	did not show any increase	not associated with improvement	less than that seen with rivastigmine alone	larger and more generalised
